Reference: US20240390508A1, “HUMAN TRANSFERRIN RECEPTOR BINDING PEPTIDE-DRUG CONJUGATE” (priority 2021, published 2024)
pKd: −log10 of the molar value.

Target: transferrin receptor (hTfR) (Homo sapiens, UniProt P02786)
Test: Intermolecular interaction evaluation test between transferrin receptor (hTfR) and peptide-nucleic acid conjugate using surface plasmon resonance (SPR)
Type: binding
Protocol: Intermolecular interaction evaluation test between transferrin receptor (hTfR) and peptide using surface plasmon resonance (SPR)
The various synthesized peptide-nucleic acid conjugates were tested for intermolecular interaction by surface plasmon resonance (SPR) of the peptide-nucleic acid conjugate with transferrin receptor (hTfR) using the method shown below. The specific test method is shown below.
NTA sensor chip (Global Life Science Technologies Japan Co., Ltd.) was inserted into Biacore T200 (Global Life Science Technologies Japan Co., Ltd.), prime operation was performed three times with running buffer: 10 mM HEPES pH 8.0 (Nacalai Tesque Co., Ltd.), 150 mM NaCl (Nacalai Tesque Co., Ltd.), 0.05% Tween 20 (Nacalai Tesque Co., Ltd.), 0.1% BSA (SIGMA-ALDRICH), and 1.0% DMSO (FUJIFILM Wako Pure Chemical Corporation), and equilibrated at a flow rate of 30 μL/min. 350 mM EDTA solution was reacted for 60 seconds at a flow rate of 10 μL/min, 0.5 mM NiCl2 solution (Kishida Chemical) was reacted for 60 seconds at a flow rate of 10 μL/min, and the NTA sensor chip was washed with 3 mM EDTA solution (Nacalai Tesque Co., Ltd.) for 60 seconds at a flow rate of 10 μL/min. After mixing 50 μL each of […] EDC solution (Global Life Science Technologies Japan Co., Ltd.) and […] NHS solution (Global Life Science Technologies Japan Co., Ltd.), the mixture was reacted for 420 seconds at a flow rate of 10 μL/min. 150 μL of a 0.5 μM hTfR solution was prepared by diluting with a running buffer and reacted for 300 seconds at a flow rate of 10 μL/min to immobilize hTfR on the NTA sensor chip. After immobilization, capping was performed by reacting with a 1.0 M ethanolamine aqueous solution (Global Life Science Technologies Japan Co., Ltd.) at a flow rate of 10 μL/min for 420 seconds. A peptide-nucleic acid conjugate solution adjusted to 10 mM in DMSO solution was diluted with running buffer to a final concentration of 10 μM peptide-nucleic acid conjugate solution, and 100 nM, 50 nM, 25 nM, 10 nM, 5 nM peptide-nucleic acid conjugate solutions were prepared. Using the aforementioned samples, the kinetics of the peptide against hTfR was obtained by SPR measurement.
The kinetics evaluation model was Single Cycle Kinetics, and curve fitting was performed using Biacore T200 Evaluation Software Version 3.0 (Global Life Science Technologies Japan Co., Ltd.). The obtained sensorgram was subjected to curve fitting using the least squares method, and the binding of the peptide-nucleic acid conjugate to hTfR was evaluated by determining the KD value.

transferrin receptor (hTfR), sequence (P02786 whole entry): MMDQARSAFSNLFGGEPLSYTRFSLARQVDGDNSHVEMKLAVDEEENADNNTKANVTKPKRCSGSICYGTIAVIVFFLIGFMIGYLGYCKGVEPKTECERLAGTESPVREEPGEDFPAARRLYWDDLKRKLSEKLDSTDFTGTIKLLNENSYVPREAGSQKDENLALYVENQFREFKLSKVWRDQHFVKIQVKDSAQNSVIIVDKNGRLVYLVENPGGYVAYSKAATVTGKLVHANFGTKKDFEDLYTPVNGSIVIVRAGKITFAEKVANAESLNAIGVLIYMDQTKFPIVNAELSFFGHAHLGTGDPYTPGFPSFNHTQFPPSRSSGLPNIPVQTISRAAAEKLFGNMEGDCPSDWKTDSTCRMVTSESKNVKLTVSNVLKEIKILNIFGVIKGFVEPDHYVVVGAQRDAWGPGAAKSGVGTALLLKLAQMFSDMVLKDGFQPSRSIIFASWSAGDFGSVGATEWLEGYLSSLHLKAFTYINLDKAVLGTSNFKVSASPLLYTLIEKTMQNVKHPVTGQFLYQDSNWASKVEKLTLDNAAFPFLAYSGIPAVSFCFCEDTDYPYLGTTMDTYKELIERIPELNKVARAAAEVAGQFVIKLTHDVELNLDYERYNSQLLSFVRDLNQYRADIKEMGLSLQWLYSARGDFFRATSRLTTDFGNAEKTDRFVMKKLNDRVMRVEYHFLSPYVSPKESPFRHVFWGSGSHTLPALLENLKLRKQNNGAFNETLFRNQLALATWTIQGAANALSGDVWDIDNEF

| Compound | pKd |
| --- | --- |
| CC[C@H](C)[C@@H]1NC(=O)[C@H](Cc2ccc(O)cc2)NC(=O)[C@H](Cc2ccc(O)cc2)NC(=O)[C@H](CC(N)=O)NC(=O)[C@H](Cc2c[nH]c3ccccc23)NC(=O)[C@H](C(C)C)NC(=O)[C@H](Cc2ccccc2)N(C)C(=O)[C@H](C(C)C)NC(=O)[C@H](C)NC(=O)CSC[C@@H](C(=O)NCC(=O)N[C@@H](CCCCn2cc(CCC(=O)NCCOCCOCC(=O)N[C@@H](CCCNC(=N)N)C(=O)N[C@@H](CCCNC(=N)N)C(=O)N[C@@H](CCCNC(=N)N)C(=O)NCC(=O)N3C[C@@H](COP(=O)(N(C)C)N4C[C@@H](COP(=O)(N(C)C)N5C[C@@H](COP(=O)(N(C)C)N6C[C@@H](COP(=O)(N(C)C)N7C[C@@H](COP(=O)(N(C)C)N8C[C@@H](COP(=O)(N(C)C)N9C[C@@H](COP(=O)(N(C)C)N%10C[C@@H](COP(=O)(N(C)C)N%11C[C@@H](COP(=O)(N(C)C)N%12C[C@@H](COP(=O)(N(C)C)N%13C[C@@H](COP(=O)(N(C)C)N%14C[C@@H](COP(=O)(N(C)C)N%15C[C@@H](COP(=O)(N(C)C)N%16C[C@@H](COP(=O)(N(C)C)N%17C[C@@H](COP(=O)(N(C)C)N%18C[C@@H](COP(=O)(N(C)C)N%19C[C@@H](COP(=O)(N(C)C)N%20C[C@@H](COP(=O)(N(C)C)N%21C[C@@H](COP(=O)(N(C)C)N%22C[C@@H](COP(=O)(N(C)C)N%23C[C@@H](COP(=O)(N(C)C)N%24C[C@@H](COP(=O)(N(C)C)N%25C[C@@H](COP(=O)(N(C)C)N%26C[C@@H](COP(=O)(N(C)C)N%27C[C@@H](COP(=O)(N(C)C)N(C)CC(N)=O)O[C@@H](n%28cnc%29c(=O)[nH]c(N)nc%29%28)C%27)O[C@@H](n%27cnc%28c(=O)[nH]c(N)nc%28%27)C%26)O[C@@H](n%26ccc(N)nc%26=O)C%25)O[C@@H](n%25ccc(N)nc%25=O)C%24)O[C@@H](n%24cnc%25c(N)ncnc%25%24)C%23)O[C@@H](n%23cnc%24c(N)ncnc%24%23)C%22)O[C@@H](n%22cnc%23c(N)ncnc%23%22)C%21)O[C@@H](n%21ccc(N)nc%21=O)C%20)O[C@@H](n%20ccc(N)nc%20=O)C%19)O[C@@H](n%19cc(C)c(=O)[nH]c%19=O)C%18)O[C@@H](n%18ccc(N)nc%18=O)C%17)O[C@@H](n%17cnc%18c(=O)[nH]c(N)nc%18%17)C%16)O[C@@H](n%16cnc%17c(=O)[nH]c(N)nc%17%16)C%15)O[C@@H](n%15ccc(N)nc%15=O)C%14)O[C@@H](n%14cc(C)c(=O)[nH]c%14=O)C%13)O[C@@H](n%13cc(C)c(=O)[nH]c%13=O)C%12)O[C@@H](n%12cnc%13c(N)ncnc%13%12)C%11)O[C@@H](n%11ccc(N)nc%11=O)C%10)O[C@@H](n%10ccc(N)nc%10=O)C9)O[C@@H](n9cc(C)c(=O)[nH]c9=O)C8)O[C@@H](n8cnc9c(=O)[nH]c(N)nc98)C7)O[C@@H](n7cnc8c(N)ncnc87)C6)O[C@@H](n6cnc7c(N)ncnc76)C5)O[C@@H](n5cnc6c(N)ncnc65)C4)O[C@@H](n4cc(C)c(=O)[nH]c4=O)C3)nn2)C(N)=O)NC(=O)[C@H](Cc2ccc(O)cc2)N(C)C(=O)[C@H](Cc2ccc(O)cc2)NC(=O)[C@H](CCCNC(=N)N)NC(=O)[C@H](CCCNC(=N)N)NC(=O)[C@H]([C@@H](C)CC)NC1=O (some centres unmarked) [Example 60] | > 7.00 |
| CC[C@H](C)[C@@H]1NC(=O)[C@H](Cc2ccc(O)cc2)NC(=O)[C@H](Cc2ccc(O)cc2)NC(=O)[C@H](CC(N)=O)NC(=O)[C@H](Cc2c[nH]c3ccccc23)NC(=O)[C@H](C(C)C)NC(=O)[C@H](Cc2ccccc2)N(C)C(=O)[C@H](C(C)C)NC(=O)[C@H](C)NC(=O)CSC[C@@H](C(=O)NCC(=O)N[C@@H](CCCCn2nnc3c2CCC2C(CC3)C2COC(=O)NCC(=O)NCC(=O)NCC(=O)N[C@@H](CCC(=O)O)C(=O)N[C@@H](CCC(=O)O)C(=O)N[C@@H](CCC(=O)O)C(=O)N[C@@H](CO)C(=O)N[C@@H](CO)C(=O)N[C@@H](CSC2CC(=O)N(CCC(=O)N3C[C@@H](COP(=O)(N(C)C)N4C[C@@H](COP(=O)(N(C)C)N5C[C@@H](COP(=O)(N(C)C)N6C[C@@H](COP(=O)(N(C)C)N7C[C@@H](COP(=O)(N(C)C)N8C[C@@H](COP(=O)(N(C)C)N9C[C@@H](COP(=O)(N(C)C)N%10C[C@@H](COP(=O)(N(C)C)N%11C[C@@H](COP(=O)(N(C)C)N%12C[C@@H](COP(=O)(N(C)C)N%13C[C@@H](COP(=O)(N(C)C)N%14C[C@@H](COP(=O)(N(C)C)N%15C[C@@H](COP(=O)(N(C)C)N%16C[C@@H](COP(=O)(N(C)C)N%17C[C@@H](COP(=O)(N(C)C)N%18C[C@@H](COP(=O)(N(C)C)N%19C[C@@H](COP(=O)(N(C)C)N%20C[C@@H](COP(=O)(N(C)C)N%21C[C@@H](COP(=O)(N(C)C)N%22C[C@@H](COP(=O)(N(C)C)N%23C[C@@H](COP(=O)(N(C)C)N%24C[C@@H](COP(=O)(N(C)C)N%25C[C@@H](COP(=O)(N(C)C)N%26C[C@@H](COP(=O)(N(C)C)N%27C[C@@H](COP(=O)(N(C)C)N(C)CC(N)=O)O[C@@H](n%28cnc%29c(=O)[nH]c(N)nc%29%28)C%27)O[C@@H](n%27cc(C)c(=O)[nH]c%27=O)C%26)O[C@@H](n%26cc(C)c(=O)[nH]c%26=O)C%25)O[C@@H](n%25cnc%26c(=O)[nH]c(N)nc%26%25)C%24)O[C@@H](n%24ccc(N)nc%24=O)C%23)O[C@@H](n%23ccc(N)nc%23=O)C%22)O[C@@H](n%22cc(C)c(=O)[nH]c%22=O)C%21)O[C@@H](n%21ccc(N)nc%21=O)C%20)O[C@@H](n%20ccc(N)nc%20=O)C%19)O[C@@H](n%19cnc%20c(=O)[nH]c(N)nc%20%19)C%18)O[C@@H](n%18cnc%19c(=O)[nH]c(N)nc%19%18)C%17)O[C@@H](n%17cc(C)c(=O)[nH]c%17=O)C%16)O[C@@H](n%16cc(C)c(=O)[nH]c%16=O)C%15)O[C@@H](n%15ccc(N)nc%15=O)C%14)O[C@@H](n%14cc(C)c(=O)[nH]c%14=O)C%13)O[C@@H](n%13cnc%14c(=O)[nH]c(N)nc%14%13)C%12)O[C@@H](n%12cnc%13c(N)ncnc%13%12)C%11)O[C@@H](n%11cnc%12c(N)ncnc%12%11)C%10)O[C@@H](n%10cnc%11c(=O)[nH]c(N)nc%11%10)C9)O[C@@H](n9cnc%10c(=O)[nH]c(N)nc%109)C8)O[C@@H](n8cc(C)c(=O)[nH]c8=O)C7)O[C@@H](n7cnc8c(=O)[nH]c(N)nc87)C6)O[C@@H](n6cc(C)c(=O)[nH]c6=O)C5)O[C@@H](n5cc(C)c(=O)[nH]c5=O)C4)O[C@@H](n4ccc(N)nc4=O)C3)C2=O)C(N)=O)C(N)=O)NC(=O)[C@H](Cc2ccc(O)cc2)N(C)C(=O)[C@H](Cc2ccc(O)cc2)NC(=O)[C@H](CCCNC(=N)N)NC(=O)[C@H](CCCNC(=N)N)NC(=O)[C@H]([C@@H](C)CC)NC1=O (some centres unmarked) [Example 58] | > 7.00 |
